Starred links: 1 amine or outer side, 2 acyl side, 3 side chain; linkers in the order of their positions; H or OH if unused. Non-standard residues stand in square brackets, D forms with d. Groups on a side chain read outwards from the residue. No end group written: not given here. *: point of attachment. C18 diacid = O=C(O)CCCCCCCCCCCCCCCCC(=O)*; γGlu = O=C(O)[C@H](CCC(=O)[*:2])N[*:1]; Palmitoyl = CCCCCCCCCCCCCCCC(=O)*; Lauroyl = CCCCCCCCCCCC(=O)*; AEEA = NCCOCCOCC(=O)O

The assay concerns SH-SY5Y cells. As to the kind of experiment: Axonal growth of RA-differentiated SH-SY5Y cells on proteoglycan (ACAN) coating. In kind it is cell-based, human. Particulars: PW polypeptide 2.5 µM, 72 h, proteoglycan (ACAN)-coated plate, FIG. 1. The method, then: Therefore, RA-induced differentiated SH-SY5Y can be used to simulate neuronal axonal growth in vitro and to test the effects of PW polypeptides on axonal growth.
Preparation of culture medium for SH-SY5Y: 1) DMEM/F12 + 10% FBS + 1 × penicillin-streptomycin + 1 mM sodium pyruvate; 2) DMEM/F12 + 1% FBS + 1 × penicillin-streptomycin + 1 mM sodium pyruvate. Preparation of 50 mM retinoic acid stock solution: 15.02 mg of retinoic acid was weighed and dissolved in 1 mL of dimethyl sulfoxide (DMSO), aliquoted, and frozen at -80°C. Proteoglycan (ACAN/CSPG1) is a type of chondroitin sulfate proteoglycan (CSPG). Preparation of 1 mg/mL proteoglycan stock solution: 1 mg of ACAN solid was dissolved in 1 mL of distilled water, aliquoted, and frozen at -80°C. Preparation of PW polypeptide solution for cells (1 mM): the corresponding mass of polypeptide powder was weighed, dissolved in PBS and filtered through a 0.2 µm filter membrane, aliquoted, and frozen at -20°C.
The 1 mg/mL proteoglycan was diluted to 250 µg/mL with distilled water to coat a 24-well cell culture plate: each well was coated with 3 droplets of ACAN, 2 µL per droplet. Using the culture medium containing 10% FBS, SH-SY5Y cells were seeded in the proteoglycan-coated 24-well plate (20,000 cells/well) and incubated (37°C, 5% CO2) for 20 h. The medium was replaced with a culture medium containing 1% FBS, and PW polypeptide (2.5 µM) or an equal volume of PBS solution was added. After incubation for 72 h, the cells were fixed with 4% paraformaldehyde (room temperature, 30 min), and cell morphology was photographed and recorded using a 10× optical microscope. 20-30 cells were randomly selected under each field of view, and axonal length was measured using Image J-SNT.
Data analysis: All measured axonal lengths within each proteoglycan-coated range were averaged to serve as one data point. One-way analysis of variance and Tukey's test were used to compare the differences between groups. P<0.05 was considered as a significant difference.
Take “PW-261: polypeptide derivative, SEQ ID NO: 51 (G[dR]KKR[dR]Q[dR]RRDMAEHTERLK([AEEA-γGlu-Lauroyl])ANDSLKLSQEYESI-NH2; N-terminus assumed; SMILES CCCCCCCCCCCC(=O)N[C@@H](CCC(=O)NCCOCCOCC(=O)NCCCC[C@H](NC(=O)[C@H](CC(C)C)NC(=O)[C@H](CCCNC(=N)N)NC(=O)[C@H](CCC(=O)O)NC(=O)[C@@H](NC(=O)[C@H](Cc1c[nH]cn1)NC(=O)[C@H](CCC(=O)O)NC(=O)[C@H](C)NC(=O)[C@H](CCSC)NC(=O)[C@H](CC(=O)O)NC(=O)[C@H](CCCNC(=N)N)NC(=O)[C@H](CCCNC(=N)N)NC(=O)[C@@H](CCCNC(=N)N)NC(=O)[C@H](CCC(N)=O)NC(=O)[C@@H](CCCNC(=N)N)NC(=O)[C@H](CCCNC(=N)N)NC(=O)[C@H](CCCCN)NC(=O)[C@H](CCCCN)NC(=O)[C@@H](CCCNC(=N)N)NC(=O)CN)[C@@H](C)O)C(=O)N[C@@H](C)C(=O)N[C@@H](CC(N)=O)C(=O)N[C@@H](CC(=O)O)C(=O)N[C@@H](CO)C(=O)N[C@@H](CC(C)C)C(=O)N[C@@H](CCCCN)C(=O)N[C@@H](CC(C)C)C(=O)N[C@@H](CO)C(=O)N[C@@H](CCC(N)=O)C(=O)N[C@@H](CCC(=O)O)C(=O)N[C@@H](Cc1ccc(O)cc1)C(=O)N[C@@H](CCC(=O)O)C(=O)N[C@@H](CO)C(=O)N[C@H](C(N)=O)[C@@H](C)CC)C(=O)O)”: the “effect of promoting axonal growth compared with the scrambled polypeptide (Scr, negative control)” value is “significant effect of promoting axonal growth” and the “promoting effect on axonal growth compared with PW6” value is on record as “no significant difference”. For the substance “PW-252: polypeptide derivative, SEQ ID NO: 47 (G[dR]KKR[dR]Q[dR]RRCDMAEHTERLK([AEEA-AEEA-γGlu-Palmitoyl])ANDSLKLSQEYESI-NH2; N-terminus assumed; SMILES CCCCCCCCCCCCCCCC(=O)N[C@@H](CCC(=O)NCCOCCOCC(=O)NCCOCCOCC(=O)NCCCC[C@H](NC(=O)[C@H](CC(C)C)NC(=O)[C@H](CCCNC(=N)N)NC(=O)[C@H](CCC(=O)O)NC(=O)[C@@H](NC(=O)[C@H](Cc1c[nH]cn1)NC(=O)[C@H](CCC(=O)O)NC(=O)[C@H](C)NC(=O)[C@H](CCSC)NC(=O)[C@H](CC(=O)O)NC(=O)[C@H](CS)NC(=O)[C@H](CCCNC(=N)N)NC(=O)[C@H](CCCNC(=N)N)NC(=O)[C@@H](CCCNC(=N)N)NC(=O)[C@H](CCC(N)=O)NC(=O)[C@@H](CCCNC(=N)N)NC(=O)[C@H](CCCNC(=N)N)NC(=O)[C@H](CCCCN)NC(=O)[C@H](CCCCN)NC(=O)[C@@H](CCCNC(=N)N)NC(=O)CN)[C@@H](C)O)C(=O)N[C@@H](C)C(=O)N[C@@H](CC(N)=O)C(=O)N[C@@H](CC(=O)O)C(=O)N[C@@H](CO)C(=O)N[C@@H](CC(C)C)C(=O)N[C@@H](CCCCN)C(=O)N[C@@H](CC(C)C)C(=O)N[C@@H](CO)C(=O)N[C@@H](CCC(N)=O)C(=O)N[C@@H](CCC(=O)O)C(=O)N[C@@H](Cc1ccc(O)cc1)C(=O)N[C@@H](CCC(=O)O)C(=O)N[C@@H](CO)C(=O)N[C@H](C(N)=O)[C@@H](C)CC)C(=O)O)”, the “effect of promoting axonal growth compared with the scrambled polypeptide (Scr, negative control)” value is “significant effect of promoting axonal growth” and the “promoting effect on axonal growth compared with PW6” value is “no significant difference”. On the same counts, the results for “PW-259: polypeptide derivative, SEQ ID NO: 50 (G[dR]KKR[dR]Q[dR]RRDMAEHTERLK([AEEA-γGlu-Palmitoyl])ANDSLKLSQEYESI-NH2; N-terminus assumed; SMILES CCCCCCCCCCCCCCCC(=O)N[C@@H](CCC(=O)NCCOCCOCC(=O)NCCCC[C@H](NC(=O)[C@H](CC(C)C)NC(=O)[C@H](CCCNC(=N)N)NC(=O)[C@H](CCC(=O)O)NC(=O)[C@@H](NC(=O)[C@H](Cc1c[nH]cn1)NC(=O)[C@H](CCC(=O)O)NC(=O)[C@H](C)NC(=O)[C@H](CCSC)NC(=O)[C@H](CC(=O)O)NC(=O)[C@H](CCCNC(=N)N)NC(=O)[C@H](CCCNC(=N)N)NC(=O)[C@@H](CCCNC(=N)N)NC(=O)[C@H](CCC(N)=O)NC(=O)[C@@H](CCCNC(=N)N)NC(=O)[C@H](CCCNC(=N)N)NC(=O)[C@H](CCCCN)NC(=O)[C@H](CCCCN)NC(=O)[C@@H](CCCNC(=N)N)NC(=O)CN)[C@@H](C)O)C(=O)N[C@@H](C)C(=O)N[C@@H](CC(N)=O)C(=O)N[C@@H](CC(=O)O)C(=O)N[C@@H](CO)C(=O)N[C@@H](CC(C)C)C(=O)N[C@@H](CCCCN)C(=O)N[C@@H](CC(C)C)C(=O)N[C@@H](CO)C(=O)N[C@@H](CCC(N)=O)C(=O)N[C@@H](CCC(=O)O)C(=O)N[C@@H](Cc1ccc(O)cc1)C(=O)N[C@@H](CCC(=O)O)C(=O)N[C@@H](CO)C(=O)N[C@H](C(N)=O)[C@@H](C)CC)C(=O)O)” are “significant effect of promoting axonal growth” and “no significant difference”.

In the case of “PW-253: polypeptide derivative, SEQ ID NO: 48 (G[dR]KKR[dR]Q[dR]RRDMAEHTERLK([AEEA-AEEA-γGlu-Palmitoyl])ANDSLKLSQEYESI-NH2; N-terminus assumed; SMILES CCCCCCCCCCCCCCCC(=O)N[C@@H](CCC(=O)NCCOCCOCC(=O)NCCOCCOCC(=O)NCCCC[C@H](NC(=O)[C@H](CC(C)C)NC(=O)[C@H](CCCNC(=N)N)NC(=O)[C@H](CCC(=O)O)NC(=O)[C@@H](NC(=O)[C@H](Cc1c[nH]cn1)NC(=O)[C@H](CCC(=O)O)NC(=O)[C@H](C)NC(=O)[C@H](CCSC)NC(=O)[C@H](CC(=O)O)NC(=O)[C@H](CCCNC(=N)N)NC(=O)[C@H](CCCNC(=N)N)NC(=O)[C@@H](CCCNC(=N)N)NC(=O)[C@H](CCC(N)=O)NC(=O)[C@@H](CCCNC(=N)N)NC(=O)[C@H](CCCNC(=N)N)NC(=O)[C@H](CCCCN)NC(=O)[C@H](CCCCN)NC(=O)[C@@H](CCCNC(=N)N)NC(=O)CN)[C@@H](C)O)C(=O)N[C@@H](C)C(=O)N[C@@H](CC(N)=O)C(=O)N[C@@H](CC(=O)O)C(=O)N[C@@H](CO)C(=O)N[C@@H](CC(C)C)C(=O)N[C@@H](CCCCN)C(=O)N[C@@H](CC(C)C)C(=O)N[C@@H](CO)C(=O)N[C@@H](CCC(N)=O)C(=O)N[C@@H](CCC(=O)O)C(=O)N[C@@H](Cc1ccc(O)cc1)C(=O)N[C@@H](CCC(=O)O)C(=O)N[C@@H](CO)C(=O)N[C@H](C(N)=O)[C@@H](C)CC)C(=O)O)”, the “effect of promoting axonal growth compared with the scrambled polypeptide (Scr, negative control)” value is recorded as “significant effect of promoting axonal growth” and the “promoting effect on axonal growth compared with PW6” value is on record as “no significant difference”. Consider “PW-96: polypeptide derivative, SEQ ID NO: 13 (GRKKRRQRRRDMAEHTERLKAKDSLKLSQEYESI; not fully specified; MOD_RES 34: note = I at position 34 is amidated; LIPID 22: note = Lys side-chain linked to 2-(2-(2-amino ethoxy) ethoxy) acetic acid-2-(2-(2-amino ethoxy) ethoxy)acetic acid-gamma Glutamic acid-Octadecanedioic acid; SITE 6: note = D-arginine; SITE 2: note = D-arginine; SITE 8: n)”, for which the “promoting effect on axonal growth compared with PW6” value is “not significantly enhanced”. In the case of “PW-92: polypeptide derivative, SEQ ID NO: 10 (G[dR]KKR[dR]QRRRCDMAEHTERLK([AEEA-AEEA-γGlu-C18 diacid])ANDSLKLSQEYESI-NH2; not fully specified (residue 8))”, the “effect of promoting axonal growth compared with the scrambled polypeptide (Scr, negative control)” value is “significant effect of promoting axonal growth” and the “promoting effect on axonal growth compared with PW6” value is on record as “no significant difference”. For the substance “NH2-GrKKRrQrRR-C-DMAEHTEALKANDSLcyclo(KLSQEYE)SI-NH2 [PW-239]”, the “effect of promoting axonal growth compared with the scrambled polypeptide (Scr, negative control)” value is reported as “significant effect of promoting axonal growth” and the “promoting effect on axonal growth compared with PW6” value is on record as “not significantly enhanced”. With “PW-95: polypeptide derivative, SEQ ID NO: 12 (GRKKRRQRRRCDMAEHTERLKAKDSLKLSQEYESI; not fully specified; MOD_RES 35: note = I at position 35 is amidated; LIPID 23: note = Lys side-chain linked to 2-(2-(2-amino ethoxy) ethoxy) acetic acid-2-(2-(2-amino ethoxy) ethoxy)acetic acid-gamma Glutamic acid-Octadecanedioic acid; SITE 6: note = D-arginine; SITE 2: note = D-arginine; SITE 8: n)”, the “promoting effect on axonal growth compared with PW6” value is given as “not significantly enhanced”.
